Measurements taken from PubChem BioAssay AID1996.
Converted amounts (≈) assume the structure as drawn.

conditions: buffer; pH 7.4; 200.0 µM

| Structure (SMILES) | solubility kinetic [µg/mL] |
| --- | --- |
| COc1ccc(NS(=O)(=O)c2cc(C(=O)N3CCCCCC3)ccc2C)cc1 | > 60.4 |
| O=C(CCCc1nc(-c2ccccc2Cl)no1)N1CCOCC1 | > 50.4 |
| O=C(NC1(Cc2ccc(O)cc2)CCCCC1)c1ccccc1 | 44.9 (≈ 145 µM) |
| Cc1nccn1CCOc1ccc(Cl)cc1.O=C(O)C(=O)O | 45 |
| CN1CCN(CC(C)(C)NS(=O)(=O)c2ccccc2)CC1 | > 46.7 |
| Cn1ccnc1SCC(=O)c1ccc(F)cc1 | 32.3 (≈ 129 µM) |
| Cc1ccc(CNC(=O)CCSCc2cccc(F)c2)cc1 | 5.2 (≈ 16.4 µM) |
| CC(C)c1ccccc1OCCCCN1CCCCC1 | 37.1 (≈ 135 µM) |
| Nc1nc(CSc2ccc(Cl)cc2)nc(N2CCCCC2)n1 | 5.6 (≈ 16.7 µM) |
| COc1ccc(CCN)cc1OC | 24.8 (≈ 137 µM) |
| CC(=O)N/C(=C\c1ccc2c(c1)OCO2)C(=O)NC(C(=O)O)c1ccccc1 (stereo not drawn) | > 57.4 |
| Cc1ccc(C(=O)OCC(=O)NC(C)c2ccccc2)s1 (stereo not drawn) | 16.1 (≈ 53.1 µM) |
| COc1ccccc1N1CCN(Cc2ccc(C(=O)O)cc2)CC1 | 42.2 (≈ 129 µM) |
| O=C(O)CCCC(=O)Nc1nncs1 | > 32.3 |
| COCCCn1c(=O)c2ccccc2n(CC(=O)NC2CCCC2)c1=O | > 53.9 |
| CN1CCCN(C(=O)COc2ccc(Br)cc2)CC1 | 44.7 (≈ 137 µM) |
| COc1ccc(/C=C/C(=O)OCC(=O)Nc2cccc(S(=O)(=O)NC3=NCCCCC3)c2)cc1 | 12.4 (≈ 25.5 µM) |
| Cc1c(C)n(CCC(=O)O)c2ccccc12 | > 32.6 |
| CCn1c(OC)nc2c1c(=O)n(C)c(=O)n2C | > 35.7 |
| Cl.O=C(O)C1=CCNCC1 | > 24.5 |
| O=C(NCc1ccc2c(c1)CCO2)Nc1ccccc1 | 8.7 (≈ 32.4 µM) |
| C/C(=N\O)C(=O)C(CN1CCCCC1)CN1CCCCC1 | 30.2 (≈ 102 µM) |
| O=C(Nc1ccccc1Cl)c1ccccc1 | 19.2 (≈ 82.9 µM) |
| CCOC(=O)CN1C(=O)C(=O)N(Cc2ccccc2)C1=O | > 43.5 |
| c1ccc(Oc2nc(-c3ccccn3)nc3ccccc23)cc1 | 43.1 (≈ 144 µM) |

| Structure (SMILES) | solubility kinetic [µg/mL] |
| --- | --- |
| Cc1nc(SCC(=O)N2CCCCC2)c2c(C)c(C)sc2n1 | 33.7 (≈ 100 µM) |
| Cc1c(C(=O)N2CCC[C@H]2CO)oc2c(F)cccc12 | 37 (≈ 133 µM) |
| O=C1CC(N2CCSCC2)C(=O)N1c1cccc(Cl)c1 (stereo not drawn) | > 46.6 |
| O=C(Nc1cc(Cl)ccc1N1CCOCC1)C1CC1 | > 42.1 |
| CC[N+](CC)(CC)CC.[Cl-] | 20.3 |
| CN1C2=C(C(=O)CC(C)(C)C2)C(c2cccs2)C2=C1CC(C)(C)CC2=O | 32.6 (≈ 88.2 µM) |
| CCOC(=O)N1CCN(C(c2cccnc2)c2ccc3cccnc3c2O)CC1 (stereo not drawn) | 28 (≈ 71.3 µM) |
| O=C(CSCc1ccc(Br)cc1)N1CCCC1 | > 47.1 |
| NC(=O)c1sc2nc3c(cc2c1N)CCC3 | 31.3 (≈ 134 µM) |
| Cl.O=C(NC1CCN(Cc2ccccc2)CC1)c1cccc(S(=O)(=O)Nc2ccc(SC(F)F)cc2)c1 | 31.7 |
| CCOC1=C/C(=C/c2c(N)n3oc(C)cc3nc2=O)C=CC1=O | 11.9 (≈ 38 µM) |
| O=c1c2ccccc2nc2n1CCS2(=O)=O | 34.6 (≈ 146 µM) |
| COc1ccccc1CC(=O)NC12CC3CC(CC(C3)C1)C2 | 7.8 (≈ 26.1 µM) |
| Clc1ccc(-c2nsc(N3CCOCC3)n2)c(Cl)c1 | 4 (≈ 12.6 µM) |
| Cc1ccc(NC(=O)c2ccccc2NC(=O)c2cccs2)cc1 | < 0.4 |
| NC(=O)c1c(NC(=O)c2cccnc2)sc2c1CCCCC2 | 6 (≈ 19 µM) |
| Cc1ccc(Cl)cc1NC(C#N)c1ccccc1 (stereo not drawn) | 6.5 (≈ 25.3 µM) |
| O=c1cc(CSCc2ccc(Cl)cc2)[nH]c(=O)[nH]1 | 41.3 (≈ 146 µM) |
| CC(=O)N(C(C)=O)c1c(N2CCCC2)c2ccccc2oc1=O | 46.1 (≈ 147 µM) |
| COCc1[nH]c(=S)c(C#N)cc1C(=O)OC | 27.9 (≈ 117 µM) |
| COc1ccc2[nH]c3c(c2c1)CCNC3C.Cl (stereo not drawn) | 30.1 |
| Cc1ccsc1C(=O)OCC(=O)NCCc1ccccc1 | 10.4 (≈ 34.3 µM) |
| CCOC(=O)c1cc(C)nc(S(C)(=O)=O)c1C#N | 28.3 (≈ 105 µM) |
| Cc1csc(NC(=O)C2CCCCC2)n1 | 19.9 (≈ 88.7 µM) |
| COc1cc2c(C(=O)O)c(C)n(C)c2cc1Br | > 44.7 |

| Structure (SMILES) | solubility kinetic [µg/mL] |
| --- | --- |
| O=C(CCC(=O)N1CCCC1)N1CCCC1 | > 33.6 |
| O=C(NC(=S)N1CCN(c2ccccc2)CC1)c1c(F)cccc1F | > 54.2 |
| Cc1ccccc1S(=O)(=O)Nc1ncnc2sccc12 | > 45.8 |
| CCC12CN3CCN(CC(C3)/C1=N\NC(=O)c1ccc(F)cc1)C2 | > 49.6 |
| Cc1ccc(OCC(O)CNC(C)c2ccccc2)cc1C.Cl (stereo not drawn) | 45.9 |
| Cc1ccccc1N=C1NC(=O)/C(=C/c2cccnc2)S1 | 38.1 (≈ 129 µM) |
| COc1ccc(-c2cc(-c3ccco3)[nH]c(=O)c2C#N)cc1 | 5.3 (≈ 18.1 µM) |
| C=CCNC(=S)N1CCN(C2CCCCC2)CC1 | > 40.1 |
| Cc1ccc(-c2nc(C#N)c(N3CCC(C)CC3)o2)cc1 | < 0.2 |
| CCOC(=O)Cc1csc(NC(=O)Cc2ccc(Br)cc2)n1 | 5.9 (≈ 15.4 µM) |
| CC(=O)c1cccc(NC(=O)NC2CCCCCCC2)c1 | 2.5 (≈ 8.67 µM) |
| COc1ccccc1C(=O)OC1CCCN(C)C1.Cl (stereo not drawn) | > 42.9 |
| O=C(O)c1cnc2[nH]c3ccccc3n2c1=O | > 34.4 |
| O=C(Nc1cccc(S(=O)(=O)N2CCCCCC2)c1)c1ccc(Cl)nc1 | 8.2 (≈ 20.8 µM) |
| COc1ccsc1C(=O)NCCN1CCOCC1 | 39.7 (≈ 147 µM) |
| Cc1cc(C)c(S(=O)(=O)NCCc2ccncc2)c(C)c1 | 19.7 (≈ 64.7 µM) |
| O=C(NCc1ccco1)c1cccc(Br)c1 | 39 (≈ 139 µM) |
| Cc1ccc(NC(=O)C(=O)c2ccc(C)cc2)cc1 | 0.7 (≈ 2.76 µM) |
| O=C(Nc1ccccc1)C1COc2ccccc2O1 (stereo not drawn) | 30.1 (≈ 118 µM) |
| COc1ccc(CSc2nc3ccccc3c(=O)[nH]2)cc1F | 1.3 (≈ 4.11 µM) |
| COc1cccc(-c2nc(CCl)cs2)c1.Cl | 22.4 |
| Nc1ncnc(Nc2ccccc2Cl)n1 | 32.8 (≈ 148 µM) |
| Cc1ccc(CNC(=O)CCSCc2ccccc2C)cc1 | 6.5 (≈ 20.7 µM) |
| O=C(COc1ccc([N+](=O)[O-])cc1)Nc1ccccc1C(=O)NC1CC1 | 1.3 (≈ 3.66 µM) |
| Cc1ccn2c(=O)c(C(=O)O)cnc2c1 | > 30.6 |

| Structure (SMILES) | solubility kinetic [µg/mL] |
| --- | --- |
| COc1ccc(CC(C)Nc2cccc(SC)c2)cc1 (stereo not drawn) | 1.6 (≈ 5.57 µM) |
| Cc1ccc(C(=O)NCCNC(=O)c2cnccn2)cc1 | 34.9 (≈ 123 µM) |
| COc1cc(C(=O)OC2CCOC2=O)c([N+](=O)[O-])cc1OC (stereo not drawn) | > 46.7 |
| CC(Oc1ccccc1)C(=O)OCC(=O)Nc1ccc2c(c1)OCO2 (stereo not drawn) | > 51.5 |
| Cc1nc2c(ncn2-c2ccccc2)c(=O)n1NC(=O)CN1CCCC1 | > 52.9 |
| O=C(C1CCC1)N1CCN(S(=O)(=O)c2ccccc2)CC1 | > 46.3 |
| COc1ccc(CN2CC(C(=O)NCCC(C)C)CC2=O)cc1 (stereo not drawn) | > 47.8 |
| Cc1cccc(OCCCCCN2CCOCC2)c1C | 28.6 (≈ 103 µM) |
| O=C(NC(=S)NCC1CCCO1)c1ccco1 (stereo not drawn) | 37.6 (≈ 148 µM) |
| O=C1CC(=O)N(c2ccc(Cl)cc2)C(=O)N1 | > 35.8 |
| CCCc1cc(=O)[nH]c(SCC(=O)Nc2c(C)n(C)n(-c3ccccc3)c2=O)n1 | > 62 |
| CC1CN(C)C(C)CC1OC(=O)C(c1ccccc1)c1ccccc1 (stereo not drawn) | 42.1 (≈ 125 µM) |
| N#CC1=C(S)N(c2ccccc2)C(c2ccco2)NC1=O (stereo not drawn) | 37 (≈ 124 µM) |
| OCC1(Cc2ccccc2)CCCN(C2CCCC2)C1 (stereo not drawn) | 34.1 (≈ 125 µM) |
| O=C(Cn1c(=S)[nH]c2ccccc2c1=O)NCCc1ccccc1 | 0.9 (≈ 2.65 µM) |
| O=C(CNC(=O)C1COc2ccccc2O1)Nc1ccc(F)c(F)c1 (stereo not drawn) | 18.3 (≈ 52.5 µM) |
| Cc1ccc(NC(=O)CN2CCOCC2)cc1C | 35.1 (≈ 141 µM) |
| Cc1onc(-c2ccccc2)c1CNC(=O)Nc1cccc(Cl)c1 | 1.8 (≈ 5.27 µM) |
| CCN(C(=O)c1cn(C)c(=O)c2ccccc12)c1ccccc1F | > 48.7 |
| Cc1oc(C(C)(C)C)cc1C(=O)NCc1ccc2c(c1)OCO2 | < 0.7 |
| Cc1nc(C)c(C(=O)NCCC(c2ccccc2)c2ccccc2)o1 | 43.8 (≈ 131 µM) |
| Cc1cc(C(=O)Nc2ccc(Cl)cc2)on1 | 3.8 (≈ 16.1 µM) |
| C=CCSc1nc(N2CCOCC2)c2c(c1C#N)CC(C)(C)N(C)C2 | 49.9 (≈ 139 µM) |
| N#CC1=C(N)Oc2c(ccc3cccnc23)C1c1ccncc1 (stereo not drawn) | 40.8 (≈ 136 µM) |
| C=CCSc1nc(C)cc(C(=O)OCC)c1C#N | 8.6 (≈ 32.8 µM) |

| Structure (SMILES) | solubility kinetic [µg/mL] |
| --- | --- |
| CCc1ccc(C(=O)OCC(=O)NCC(F)(F)F)cc1 | 17.9 (≈ 61.9 µM) |
| Cc1ccc(S(=O)(=O)N2CCCC(C)C2)cc1 (stereo not drawn) | 21.3 (≈ 84.1 µM) |
| CCCc1cc(=O)[nH]c(SCC(=O)Nc2ccc(S(=O)(=O)N3CCCC3)cc2)n1 | 29 (≈ 66.4 µM) |
| S=C(NCCc1cccc(Cl)c1)NC1CCCCC1 | 10.5 (≈ 35.4 µM) |
| CC(C)CCC1(C)NC(=O)N(CC(=O)c2ccc[nH]2)C1=O (stereo not drawn) | 36.1 (≈ 124 µM) |
| O=C(c1cc2cc(Br)ccc2[nH]1)N1CCc2ccccc21 | < 0.4 |
| O=C(O)c1cccc(Nc2nc3ccccc3nc2NS(=O)(=O)c2ccccc2)c1 | > 63.1 |
| FC(F)Oc1ccc(N=C2SCC3CCCCN23)cc1 (stereo not drawn) | 15.3 (≈ 51.3 µM) |
| Cc1ccc(C)c(S(=O)(=O)NCCN2CCOCC2)c1.Cl | > 50.2 |
| CCOC(=O)Cn1c(=O)n(Cc2ccc(C)cc2)c(=O)c2cccnc21 | 1.4 (≈ 3.96 µM) |
| O=S1(=O)CC2SC(=S)N(c3ccccc3)C2C1 (stereo not drawn) | 1.3 (≈ 4.55 µM) |
| CSCCC(NC(=O)c1cccc(C)c1)C(=O)O (stereo not drawn) | > 40.1 |
| CCOc1ccccc1OCCCC(=O)Nc1cc(S(=O)(=O)N2CCOCC2)ccc1OC | 11.1 (≈ 23.2 µM) |
| O=C(c1ccc2ccccc2n1)N1CCN(S(=O)(=O)c2ccc(Cl)cc2)CC1 | 27.4 (≈ 65.9 µM) |
| O=C(COC(=O)c1cccs1)NCc1cccs1 | 40 (≈ 142 µM) |
| Cc1cc(C)c2c(=O)[nH]c(SCC(=O)N3CCOCC3)nc2n1 | > 50.2 |
| CCOc1ncccc1C(=O)Nc1ccc2c(c1)OCO2 | 2.7 (≈ 9.43 µM) |
| COc1ccccc1NC(=O)CSc1nnc(-c2ccccn2)o1 | > 51.4 |
| Cc1ccsc1CN(C)C(=O)c1ccc(Oc2ccccc2)cc1 | 3.3 (≈ 9.78 µM) |
| COc1cccc(NC(=O)Nc2cccc(C)n2)c1 | 0.3 (≈ 1.17 µM) |
| CCOC(=O)c1cc(-c2c(Cl)cccc2Cl)no1 | 12.1 (≈ 42.3 µM) |
| O=C(CCN1CCN(c2ccccc2F)CC1)Nc1ccc(F)cc1 | 10.4 (≈ 30.1 µM) |
| CCn1cc(C=C2C(=O)N(C)C(=O)N(C)C2=O)c2ccccc21 | 1 (≈ 3.21 µM) |
